Patent US20050037062A1, “Emulsifying systems containing azetidine derivatives” (Aventis Pharma S.A., priority 2003, published 2005)
≈ marks a conversion by molar mass, not a printed value. Like-named read-outs stand apart in the source and are kept apart here.

Key:
[1] = Oral bioavailability in preclinical studies in rats; conditions: rat, in vivo
Protocol: (§1) In the first preclinical studies performed in rats, the oral administration of an aqueous suspension of a drug substance of formula (I) in 0.5% methylcellulose/0.2% tween 80 (dose at 10 mg/kg) led to a very low bioavailability (3%). […] Furthermore, this excipient (medium chain triglyceride) is known for its digestibility and regulatory acceptability. […] However, in the First in Man study, an important food effect and interindividual variability were observed: the Maximum Tolerated Dose was around 100 mg in fasted conditions, with an interindividual variability of 50%, whereas in fed conditions the Maximum Tolerated Dose was divided by 10 with a decrease of the interindividual variability to 30%.

[2] = First in Man study (Maximum Tolerated Dose, interindividual variability, food effect); format: in vivo; conditions: Miglyol 812N solution
Protocol: as §1

[3] = Solubility of compound (Ic) in lipids, surfactants and pharmaceutical cosolvents; format: physicochemical
Source text: The first step was to determine the solubility of compound(Ic) in an exhaustive series of lipids and other pharmaceutical cosolvents including vegetable oils, lipidic components, surfactants, hydrophilic components and phospholipids. The protocol of the solubility measurement is reported in the annex.

[4] = Colloidal stability and self-emulsifying properties: drug recovered after incubation in simulated GI media and filtration; format: physicochemical; conditions: for Compound (Ic) recovered after filtration (2 μm) after incubation with GI media: diluted 1:50, 2 h at 37° C., theoretical concentration 200 μg/ml; for filtered fraction: aqueous solution of the drug, filter 0.45, 2 or 5 μm
Protocol: The preparation of the mixture of Miglyol 812 (liquid), Cremophor RH40 (semisolid at room temperature, solidification point 28° C.) and Capryol 90 (liquid) needed to heat the mixture at 60° C. to obtain a homogeneous solution. In addition, the heating of the mixture could have an impact on the chemical stability of Compound Ic. Taking into account these two issues, the proposition was made to replace Cremophor RH 40 by Cremophor EL (from same chemical family). Cremophor EL, polyoxyl 35 castor oil, is a liquid surfactant: No heating is needed for the manufacturing. Two tests were performed to evaluate the interest of Cremophor EL in comparison with Cremophor RH 40: design of the pseudoternary diagram for a surfactant/co surfactant ratio of 3:1 and test of the infinite dilutability. [drawing 15] • Miglyol 812N (Condea, Batch 508) • PEG 400—Batch 5056 • Phosal 50PG (Aventis Nattermann, Batch 228188) • Labrafil 1944CS (Gattefossé, Batch 15195) • Labrasol (Gattefossé, Batch 22478) • Gelucire 44/14 (Gattefossé, Batch 14236) Microemulsions (Cremophor RH40 or EL, Capryol 90, Miglyol 812N) The weighed drug (50 mg) was dispersed in the excipient (up to 5 g), and then maintained under mechanical stirring until dissolution. […] The mass was poured in a suppository mould and kept refrigerated overnight. For the stability studies, the melted mass was poured into hard gelatine capsule (size 1) and kept refrigerated overnight. The gelatine shell was then removed. [drawing 17] The following simulated media were selected for the present experiment: • Gastric medium USP, pH 1.2 • Fasted intestinal medium, pH 6.8 (ref. Dressman et al., Pharm. Res., 1998)
Fed intestinal medium, pH 5 (ref. Dressman et al., Pharm. Res., 1998)
All Compound (Ic) formulations (400 mg) were diluted 1:50 in the gastric, fasted intestinal or fed intestinal medium (20 ml), then incubated during 2 hours at 37° C. under mechanical stirring (300 rpm). The drug concentration was determined by HPLC before and after filtration (0.2 or 2 μm).
The aim of this study was to evaluate the colloidal stability and the self-emulsifying properties of the emulsion/microemulsion/micellar solution of the (Ic) formulation after incubation in the GI media. Thus, the sample was filtered onto 2 μm (able to retain oil droplets >2 μm, as well as drug crystals >2 μm) then dosed by HPLC. The filter size (2 μm) has been chosen after a screening with different filter sizes (0.45, 2 and 5 μm) tested on the aqueous solution of the drug. […] In summary, the filtered fraction was approximately 1% in the gastric medium, 2% in the fasted intestinal medium, 4.5-5.5% in the fed intestinal medium.

Structure (SMILES): CS(=O)(=O)C(=C1CN(C(c2ccc(Cl)cc2)c2ccc(Cl)cc2)C1)c1cc(F)cc(F)c1 [Compound (Ic)]
- bioavailability ([1]; aqueous suspension in 0.5% methylcellulose/0.2% tween 80, dose 10 mg/kg): 3%
- bioavailability ([1]; solution of 25 mg/mL in Miglyol 812N, dose 1 mg/kg): 13%
- bioavailability ([1]; solution of 25 mg/mL in Miglyol 812N, dose 10 mg/kg): 37%
- Maximum Tolerated Dose ([2]; fasted conditions): around 100 mg
- interindividual variability ([2]; fasted conditions): 50%
- Maximum Tolerated Dose relative to fasted conditions ([2]; fed conditions): divided by 10
- interindividual variability ([2]; fed conditions): 30%
- solubility ([3]; aqueous with cosolvent or surfactant or cyclodextrin, in Cremophor RH40 (POE hydrogenated castor oil), read-out: solubility): 80.6 mg/mL (≈ 163 mM)
- solubility ([3]; aqueous with cosolvent or surfactant or cyclodextrin, in HP β Cyclodextrin, read-out: solubility): 0.05 mg/mL (≈ 0.101 mM)
- solubility ([3]; aqueous with cosolvent or surfactant or cyclodextrin, in Span 20 (Sorbitan monolaurate), read-out: solubility): 31.6 mg/mL (≈ 63.9 mM)
- solubility ([3]; aqueous with cosolvent or surfactant or cyclodextrin, in Span 85 (Sorbitan trioleate), read-out: solubility): 92 mg/mL (≈ 186 mM)
- solubility ([3]; aqueous with cosolvent or surfactant or cyclodextrin, in Tween 80 (POE monooleate), read-out: solubility): 50.6 mg/mL (≈ 102 mM)
- solubility ([3]; in Brij 96 (POE oleyl ether)): 85.7 mg/g
- solubility ([3]; in Capryol 90 (Polyethyleneglycol monocaprylate)): 56.6 mg/g
- solubility ([3]; in Castor oil): 16.1 mg/g
- solubility ([3]; in Coconut oil): 18.6 mg/g
- solubility ([3]; in Cremophor RH 40 (Polyoxyl 40 hydrogenated castor oil)): 80.6 mg/g
- solubility ([3]; in Crossential LN 75 (Linolenic acid)): 45.4 mg/g
- solubility ([3]; in Crossential O94 (Oleic acid)): 19.6 mg/g
- solubility ([3]; in Edenor C8 98-100 (Caprylic acid)): 75.5 mg/g
- solubility ([3]; in Gelucire 44/14 (lauroyl macrogol-32 glycerides)): 90.1 mg/g
- solubility ([3]; in Gelucire 50/13 (stearoyl macrogol-32 glycerides)): 78.5 mg/g
- solubility ([3]; in Labrafil M 1944 CS (Oleic Macrogol-6 glycerides)): 30.3 mg/g
- solubility ([3]; in Labrasol (Caprylocaproyl macrogol-8 glycerides)): 111.8 mg/g
- solubility ([3]; in Lauroglycol (PG monolaurate)): 28.5 mg/g
- solubility ([3]; in Miglyol 812 (Caprylic/capric triglycerides)): 37.4 mg/g
- solubility ([3]; in Myrj 45 (POE stearate)): 86.9 mg/g
- solubility ([3]; in Myvacet 9-45 (Distilled acetylated monoglycerides)): 54.8 mg/g
- solubility ([3]; in Neobee M 20 (PG dicaprylate/dicaprate)): 47.7 mg/g
- solubility ([3]; in Olive oil): 10.9 mg/g
- solubility ([3]; in PEG 1500 (polyethylene glycol 1500)): <10 mg/g
- solubility ([3]; in Phosal 40 MD (Phosphatidylcholine 38 ± 1.5% in glyceryl stearate, soya oil and linoleic acid ethylester)): 12.5 mg/g
- solubility ([3]; in Phosal 50 PG (Phosphatidylcholine ≧ 50% in propylene glycol)): 11.7 mg/g
- solubility ([3]; in Phosal 50 PG (Phosphatidylcholine ≧ 50% in propylene glycol), listed as Compound Ic): 11.5 mg/g
- solubility ([3]; in Phosal 53 MCT (Phosphatidylcholine 56 ± 3% in caprylic/capric triglycerides, alcohol, glyceryl stearate, oleic acid and ascorbyl palmitate)): 25.8 mg/g
- solubility ([3]; in Phosal 75 SA (Phosphatidylcholine 75 ± 3% in alcohol, safflower oil, glyceryl stearate, coconut oil and ascorbyl palmitate)): <10 mg/g
- solubility ([3]; in Phospholipon 90 (Phosphatidylcholine 93%)): 40 mg/g
- solubility ([3]; in Safflower oil): 14.8 mg/g
- solubility ([3]; in Sesame oil): 10.9 mg/g
- solubility ([3]; in VitaminE TPGS (d-α-tocopheryl polyethylene glycol 1000 succinate)): 100 mg/g
- solubility ([3]; oil or lipid, in Imwitor 742 (Glyceryl mono-dicaprylate/caprate), read-out: solubility): 31.2 mg/mL (≈ 63.1 mM)
- solubility ([3]; oil or lipid, in Imwitor 988 (Glyceryl mono-dicaprylate), read-out: solubility): 41.2 mg/mL (≈ 83.3 mM)
- solubility ([3]; oil or lipid, in Labrafil M1944 CS (oleyl macrogol-6-glycerides), read-out: solubility): 30.3 mg/mL (≈ 61.3 mM)
- solubility ([3]; oil or lipid, in Miglyol 812 (caprylic/capric triglyceride), read-out: solubility): 35.9 mg/mL (≈ 72.6 mM)
- solubility ([3]; oil or lipid, in Peanut oil, read-out: solubility): 7.2 mg/mL (≈ 14.6 mM)
- solubility ([3]; oil or lipid, in Soyabean oil, read-out: solubility): 31.8 mg/mL (≈ 64.3 mM)
- solubility ([3]; organic solvent or mixture, in Ethanol, read-out: solubility): 5.8 mg/mL (≈ 11.7 mM)
- solubility ([3]; organic solvent or mixture, in PEG 400 (polyethylene glycol 400), read-out: solubility): 78.1 mg/mL (≈ 158 mM)
- solubility ([3]; organic solvent or mixture, in Transcutol (Diethylene glycol monoethyl ether), read-out: solubility): 89.8 mg/mL (≈ 182 mM)
- Compound (Ic) recovered after filtration (2 μm) after incubation with GI media ([4]; Fasted intestinal medium pH 6.8): 4.2 µg/mL
- Compound (Ic) recovered after filtration (2 μm) after incubation with GI media ([4]; Fed intestinal medium pH 5): 8.8 µg/mL
- Compound (Ic) recovered after filtration (2 μm) after incubation with GI media ([4]; Gastric medium): 1.9 µg/mL
- filtered fraction ([4]; fasted intestinal medium): ~2%
- filtered fraction ([4]; fed intestinal medium): 4.5-5.5%
- filtered fraction ([4]; gastric medium): approximately 1%
